Source: ChEMBL document CHEMBL3875143, “Novel multi-target-directed ligands for Alzheimer's disease: Combining cholinesterase inhibitors and 5-HT6 receptor antagonists. Design, synthesis and biological evaluation” (Eur J Med Chem, 2016)
Activity calls are given as the source filed them. The calls are words filed in the database; no cut-off is given here.

Tests used:
[1] = biological target: 5-hydroxytryptamine receptor 6 (Homo sapiens, UniProt P50406); assay: biochemical
Description: Displacement of [3H]-LSD from human recombinant 5-HT6 receptor expressed in CHOK1 cell membranes measured after 60 mins by scintillation counter

Cholinesterase [2] = biological target: Cholinesterase (Equus caballus, UniProt P81908)
Description: Inhibition of equine serum BuChE preincubated for 5 mins followed by butyrylthiocholine iodide substrate addition measured after 5 mins by Ellman's method

Acetylcholinesterase [3] = biological target: Acetylcholinesterase (Electrophorus electricus, UniProt O42275)
Description: Inhibition of electric eel AChE preincubated for 5 mins followed by acetylthiocholine iodide substrate addition measured after 5 mins by Ellman's method

[4] = biological target: Cholinesterase (Equus caballus) (UniProt P81908); assay: Inhibition of equine serum BuChE at 10 uM preincubated for 5 mins followed by butyrylthiocholine iodide substrate addition measured after 5 mins by Ellman's method relative to control
Acetylcholinesterase [5] = biological target: Acetylcholinesterase (Homo sapiens, UniProt P22303); assay: Inhibition of human recombinant AChE preincubated for 5 mins followed by acetylthiocholine iodide substrate addition measured after 5 mins by Ellman's method
Rattus norvegicus [6] = assay: Reduction in spontaneous locomotor activity in Wistar rat at 10 mg/kg, ip pretreated for 30 to 180 mins by open field assay; type: functional, organism-based
Rattus norvegicus [7] = assay: Reduction in spontaneous locomotor activity in ip dosed Wistar rat pretreated for 30 mins by open field assay; type: functional, organism-based
[8] = biological target: Cholinesterase (Equus caballus) (UniProt P81908); settings: 9 to 30 nM
[9] = biological target: Acetylcholinesterase (Electrophorus electricus) (UniProt O42275); assay: Non-competitive inhibition of electric eel AChE at 30 to 120 nM using varying levels of acetylthiocholine iodide substrate preincubated for 5 mins followed by substrate addition measured after 5 mins by Line-weaver burk plot method
Rattus norvegicus [10] = assay: Reversal of scopolamine-induced hyperlocomotion in ip dosed Wistar rat; type: functional, organism-based
[11] = Reduction of spontaneous locomotor activity below baseline in Wistar rat at 10 mg/kg, ip in presence of scopolamine by open field assay; type: ADME, organism-based; settings: in vivo
Cholinesterase [12] = biological target: Cholinesterase (Homo sapiens, UniProt P06276); assay: Inhibition of human recombinant BuChE preincubated for 5 mins followed by butyrylthiocholine iodide substrate addition measured after 5 mins by Ellman's method
[13] = PAMPA, 2 h

5-hydroxytryptamine receptor 6, sequence (P50406 whole entry): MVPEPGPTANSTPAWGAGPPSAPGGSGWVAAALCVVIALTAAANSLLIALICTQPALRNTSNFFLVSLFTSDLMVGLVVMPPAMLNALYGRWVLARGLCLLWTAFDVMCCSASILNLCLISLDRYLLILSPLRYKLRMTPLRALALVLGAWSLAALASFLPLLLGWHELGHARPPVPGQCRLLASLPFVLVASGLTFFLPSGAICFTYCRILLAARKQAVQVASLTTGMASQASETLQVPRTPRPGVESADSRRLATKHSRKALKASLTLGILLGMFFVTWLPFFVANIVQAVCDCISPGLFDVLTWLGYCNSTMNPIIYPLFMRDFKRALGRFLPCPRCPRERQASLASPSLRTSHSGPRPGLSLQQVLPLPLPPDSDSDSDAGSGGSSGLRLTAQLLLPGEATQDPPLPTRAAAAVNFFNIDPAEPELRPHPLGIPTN
Cholinesterase (Equus caballus), sequence (P81908 whole entry): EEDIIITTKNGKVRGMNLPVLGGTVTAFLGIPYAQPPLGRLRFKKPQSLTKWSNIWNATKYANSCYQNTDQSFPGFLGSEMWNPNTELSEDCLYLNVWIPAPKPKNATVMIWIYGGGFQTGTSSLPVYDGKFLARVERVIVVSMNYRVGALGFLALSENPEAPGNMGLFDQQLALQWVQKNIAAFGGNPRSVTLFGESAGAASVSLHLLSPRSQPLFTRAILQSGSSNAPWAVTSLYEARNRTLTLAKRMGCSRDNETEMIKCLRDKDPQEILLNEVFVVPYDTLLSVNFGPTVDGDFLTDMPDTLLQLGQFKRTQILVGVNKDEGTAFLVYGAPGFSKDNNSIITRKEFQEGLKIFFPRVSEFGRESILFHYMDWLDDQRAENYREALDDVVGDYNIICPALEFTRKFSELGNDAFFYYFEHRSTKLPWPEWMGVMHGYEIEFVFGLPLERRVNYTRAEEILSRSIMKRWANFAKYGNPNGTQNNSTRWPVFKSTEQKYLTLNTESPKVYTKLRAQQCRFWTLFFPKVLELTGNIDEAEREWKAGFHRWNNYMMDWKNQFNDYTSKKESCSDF
Cholinesterase (Equus caballus, UniProt P81908), sequence (P81908 whole entry): as above
Acetylcholinesterase (Homo sapiens, UniProt P22303), sequence (P22303 whole entry): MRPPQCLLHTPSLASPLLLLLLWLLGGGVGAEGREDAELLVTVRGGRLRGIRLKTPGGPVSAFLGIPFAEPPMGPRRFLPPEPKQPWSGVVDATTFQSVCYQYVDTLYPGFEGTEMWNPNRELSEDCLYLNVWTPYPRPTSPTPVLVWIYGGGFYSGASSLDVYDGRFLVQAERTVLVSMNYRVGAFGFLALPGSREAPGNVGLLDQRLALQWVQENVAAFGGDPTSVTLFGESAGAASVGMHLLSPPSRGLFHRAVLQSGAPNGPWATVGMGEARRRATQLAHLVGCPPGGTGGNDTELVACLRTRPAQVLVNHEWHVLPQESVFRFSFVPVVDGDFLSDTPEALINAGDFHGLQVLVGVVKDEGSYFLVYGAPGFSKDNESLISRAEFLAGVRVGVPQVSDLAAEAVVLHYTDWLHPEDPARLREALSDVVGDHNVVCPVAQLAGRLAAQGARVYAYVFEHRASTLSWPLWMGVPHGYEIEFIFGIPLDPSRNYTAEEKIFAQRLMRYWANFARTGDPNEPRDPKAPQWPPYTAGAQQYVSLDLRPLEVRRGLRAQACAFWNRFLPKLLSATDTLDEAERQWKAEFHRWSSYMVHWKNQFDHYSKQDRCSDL
Acetylcholinesterase (Electrophorus electricus, UniProt O42275), sequence (O42275 whole entry): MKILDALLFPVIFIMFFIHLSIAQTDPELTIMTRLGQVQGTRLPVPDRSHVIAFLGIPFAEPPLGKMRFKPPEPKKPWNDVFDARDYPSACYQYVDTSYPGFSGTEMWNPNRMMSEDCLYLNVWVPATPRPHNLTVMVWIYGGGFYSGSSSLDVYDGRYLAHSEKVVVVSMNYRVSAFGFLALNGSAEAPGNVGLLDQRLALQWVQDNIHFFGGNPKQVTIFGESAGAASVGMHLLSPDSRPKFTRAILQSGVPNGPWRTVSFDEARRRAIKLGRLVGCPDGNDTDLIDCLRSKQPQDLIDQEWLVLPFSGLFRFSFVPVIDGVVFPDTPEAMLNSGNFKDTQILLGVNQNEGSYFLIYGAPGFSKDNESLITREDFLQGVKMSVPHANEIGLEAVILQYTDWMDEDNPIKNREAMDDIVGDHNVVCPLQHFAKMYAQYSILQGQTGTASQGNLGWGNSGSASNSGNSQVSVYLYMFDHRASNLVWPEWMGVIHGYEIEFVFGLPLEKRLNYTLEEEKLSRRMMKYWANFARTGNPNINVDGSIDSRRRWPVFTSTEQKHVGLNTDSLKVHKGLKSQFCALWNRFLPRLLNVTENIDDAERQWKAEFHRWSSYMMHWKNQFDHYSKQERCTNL
Cholinesterase (Homo sapiens, UniProt P06276), sequence (P06276 whole entry): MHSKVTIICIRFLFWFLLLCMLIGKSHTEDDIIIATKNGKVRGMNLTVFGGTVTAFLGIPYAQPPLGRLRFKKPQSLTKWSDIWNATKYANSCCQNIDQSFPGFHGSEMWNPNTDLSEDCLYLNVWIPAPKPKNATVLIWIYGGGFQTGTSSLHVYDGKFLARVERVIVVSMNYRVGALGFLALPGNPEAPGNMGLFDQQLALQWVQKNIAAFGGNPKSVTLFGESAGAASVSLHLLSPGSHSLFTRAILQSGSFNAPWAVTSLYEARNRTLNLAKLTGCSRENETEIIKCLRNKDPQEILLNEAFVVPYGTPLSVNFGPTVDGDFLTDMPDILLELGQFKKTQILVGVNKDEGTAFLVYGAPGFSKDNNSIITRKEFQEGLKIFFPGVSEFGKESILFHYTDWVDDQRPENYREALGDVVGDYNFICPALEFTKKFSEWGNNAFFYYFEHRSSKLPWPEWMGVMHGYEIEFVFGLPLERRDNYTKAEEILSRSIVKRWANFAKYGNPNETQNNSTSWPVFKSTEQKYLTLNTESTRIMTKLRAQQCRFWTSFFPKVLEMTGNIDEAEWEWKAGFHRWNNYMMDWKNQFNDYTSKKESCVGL
Acetylcholinesterase (Electrophorus electricus), sequence (O42275 24-633 limits assumed): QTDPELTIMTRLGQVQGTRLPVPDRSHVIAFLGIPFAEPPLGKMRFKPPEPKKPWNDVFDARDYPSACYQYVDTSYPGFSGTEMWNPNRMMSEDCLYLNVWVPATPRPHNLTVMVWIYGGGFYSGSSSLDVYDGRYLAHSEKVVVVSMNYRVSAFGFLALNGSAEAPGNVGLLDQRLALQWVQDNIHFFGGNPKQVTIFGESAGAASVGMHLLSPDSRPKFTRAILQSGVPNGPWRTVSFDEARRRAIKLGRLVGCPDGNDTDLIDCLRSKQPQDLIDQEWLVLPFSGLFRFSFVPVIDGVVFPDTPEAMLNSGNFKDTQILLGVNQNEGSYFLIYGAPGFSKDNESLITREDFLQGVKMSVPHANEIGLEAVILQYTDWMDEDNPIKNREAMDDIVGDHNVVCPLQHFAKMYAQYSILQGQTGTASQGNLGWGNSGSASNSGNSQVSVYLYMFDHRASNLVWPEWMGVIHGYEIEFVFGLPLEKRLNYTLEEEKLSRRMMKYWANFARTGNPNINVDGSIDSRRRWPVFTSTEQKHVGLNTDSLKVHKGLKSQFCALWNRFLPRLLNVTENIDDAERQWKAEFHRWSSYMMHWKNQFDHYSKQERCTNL

SMILES | Ki [1] | IC50 (Cholinesterase [2]) | IC50 (Acetylcholinesterase [3]) | other results
O=S(=O)(c1ccccc1)n1ccc2c(N3CCN(CCCCCCNCc4ccccc4)CC3)cccc21 | 0.002 µM | 2.38 µM | – | –
O=S(=O)(c1ccccc1)n1ccc2c(N3CCN(CCCNCc4ccccc4)CC3)cccc21 | 0.016 µM | 0.608 µM | – | –
O=S(=O)(c1ccccc1)n1ccc2c(N3CCN(CCNCc4ccccc4)CC3)cccc21 | 0.012 µM | 1.31 µM | – | –
O=S(=O)(c1ccccc1)n1ccc2c(N3CCN(CCNC4CCN(Cc5ccccc5)C4)CC3)cccc21 (stereo unspecified) | 0.013 µM | 3.39 µM | – | –
CN(CCCCN1CCN(c2cccc3c2ccn3S(=O)(=O)c2ccccc2)CC1)Cc1ccccc1 | 0.004 µM | 6.22 µM | – | –
O=S(=O)(c1ccccc1)n1ccc2c(N3CCN(CCCCCNCc4ccccc4)CC3)cccc21 | 0.008 µM | 1.67 µM | 4.41 µM | –
CN(CCCN1CCN(c2cccc3c2ccn3S(=O)(=O)c2ccccc2)CC1)Cc1ccccc1 | 0.01 µM | – | – | inhibition [4]: 27.8%
O=S(=O)(c1ccccc1)n1ccc2c(N3CCN(CCCCCNc4c5c(nc6ccccc46)CCCC5)CC3)cccc21 | 0.008 µM | 0.0213 µM | 0.057 µM | IC50 (Acetylcholinesterase [5]): 0.0182 µM
O=S(=O)(c1ccccc1)n1ccc2c(N3CCN(CCCCCCNc4c5c(nc6ccccc46)CCCC5)CC3)cccc21 | 0.002 µM | 0.0082 µM | 0.0459 µM | Activity (Rattus norvegicus [6]): Active; Activity (Rattus norvegicus [7]): Dose-dependent effect; inhibition [8]: Active; inhibition [9]: Active; Activity (Rattus norvegicus [10]): Dose-dependent effect; Activity [11]: Non-Toxic; IC50 (Cholinesterase [12]): 0.0297 µM; IC50 (Acetylcholinesterase [5]): 0.0129 µM
O=S(=O)(c1ccccc1)n1ccc2c(N3CCN(CCCCNCc4ccccc4)CC3)cccc21 | 0.008 µM | 2.21 µM | – | –
O=S(=O)(c1ccccc1)n1ccc2c(N3CCNCC3)cccc21 | – | – | – | inhibition [4]: 45.8%
O=S(=O)(c1ccccc1)n1ccc2c(N3CCN(CCCCCCCNc4c5c(nc6ccccc46)CCCC5)CC3)cccc21 | 0.036 µM | 0.01 µM | 0.0151 µM | IC50 (Acetylcholinesterase [5]): 0.0062 µM
O=S(=O)(c1ccccc1)n1ccc2c(N3CCN(CCCNC4CCN(Cc5ccccc5)CC4)CC3)cccc21 | 0.002 µM | 3.22 µM | – | –
CC(=O)[C@H]1CC[C@H]2[C@@H]3CCC4=CC(=O)CC[C@]4(C)[C@H]3CC[C@]12C [PROGESTERONE] | – | – | – | logPeff [13]: -3.8
O=S(=O)(c1ccccc1)n1ccc2c(N3CCN(CCNc4c5c(nc6ccccc46)CCCC5)CC3)cccc21 | 0.01 µM | 0.0168 µM | 0.0075 µM | IC50 (Acetylcholinesterase [5]): 0.0436 µM
O=S(=O)(c1ccccc1)n1ccc2c(N3CCN(CCCNc4c5c(nc6ccccc46)CCCC5)CC3)cccc21 | 0.006 µM | 0.0142 µM | 0.0121 µM | IC50 (Acetylcholinesterase [5]): 0.0097 µM
O=S(=O)(c1ccccc1)n1ccc2c(N3CCN(CCCCCCCCNc4c5c(nc6ccccc46)CCCC5)CC3)cccc21 | 0.036 µM | 0.0124 µM | 0.0071 µM | IC50 (Acetylcholinesterase [5]): 0.0013 µM
O=S(=O)(c1ccccc1)n1ccc2c(N3CCN(CCCCNC4CCN(Cc5ccccc5)CC4)CC3)cccc21 | 0.016 µM | 2.16 µM | – | –
CC(C)NCC(O)COc1cccc2ccccc12 (stereo unspecified) [PROPRANOLOL] | – | – | – | logPeff [13]: -3.7
CN(CCN1CCN(c2cccc3c2ccn3S(=O)(=O)c2ccccc2)CC1)Cc1ccccc1 | 0.015 µM | 1.95 µM | – | –
CN(CCCCCN1CCN(c2cccc3c2ccn3S(=O)(=O)c2ccccc2)CC1)Cc1ccccc1 | 0.01 µM | 3.07 µM | – | –
O=S(=O)(c1ccccc1)n1ccc2c(N3CCN(CCNC4CCN(Cc5ccccc5)CC4)CC3)cccc21 | 0.039 µM | 10.6 µM | – | –
